Test results from ChEMBL document CHEMBL1153122, “Pyrazolone based TGFbetaR1 kinase inhibitors” (Bioorg Med Chem Lett, 2010).

Key:
Mus musculus = species on record: Mus musculus; assay: animal or person; conditions: BALB/c, po, 1 h, read-out: INH
[1] = Oral bioavailability in rat at 5 mg/kg; format: ADME, organism-based; conditions: in vivo
[2] = Half life in rat at 5 mg/kg, po and iv; format: ADME, organism-based; set-up: dose 5 mg/kg, route oral; conditions: in vivo

For `Cn1c(-c2ccc3nccnc3c2)c(-c2cccc(Br)c2)c(=O)n1C`, which inhibition in vivo at 3 mg/kg (Mus musculus) is on record?
Its inhibition in vivo at 3 mg/kg is 43%.

And the bioavailability [1]?
The bioavailability was 34%.

And the half-life [2]?
The half-life was 3 h.
